# Experimental data taken from patent publication US20120093836A1, “PHARMACEUTICAL COMPOSITIONS FOR TREATING METASTASIS” (UNIVERSIDAD DEL PAIS VASCO, priority 2009, published 2012).
# Legend:
# [1] = tested on: TNF-α; experiment: Production of TNF-α by the HSE (ELISA of supernatants); type: cell-based, mouse; conditions: IL-1β receptor blocked
# Procedure: The concentration of TNF-α and IL-18 in the supernatants was determined using a monoclonal antibody-based commercial ELISA kit (R&D Systems) following the manufacturer's instructions. The tumor adhesion assays of C. albicans-induced tumor adhesion and B16 melanoma tumor cell proliferation assays in response to C. albicans (both described above) were performed in collaboration with the company, Pharmakine S.L.
# The stimulation of the endothelium causes a cascade of cytokine which ends with the expression of adhesion molecules such as the VCAM-1 (Mendoza (cited at supra) 1998, Vidal-Vanaclocha et al. 2000. PNAS, 97: 734-739) wherein the tumor cells are adhered. To know whether the process triggered by the MNF which as a consequence caused the increase of the adhesion of MB16 cells to the HSE was also mediated by cytokines, the concentration of TNF-α, the cytokine which is described as one of the first and most important cytokines acting in the proinflammatory cascade described in the HSE was measured.
# [2] = tested on: adhesion of MB16 cells to the HSE (hepatic sinusoidal endothelium); experiment: Tumor adhesion assay for C. albicans-induced tumor adhesion (fluorescence, BCECF-AM labelled MB16 cells on HSE); type: cell-based, mouse; conditions: IL-1β receptor blocked, added 15 minutes before MNF
# Procedure: The adhesion was measured using the method based on the fluorescence measurement. The MB16 cells were resuspended in a solution of 2′,7′-bis-(2-carboxyethyl)-5.6-carboxyfluorescein acetoxymethyl ester (BCECF-AM) in DMEM-HEPES (40 μg/ml) and were incubated for 20 minutes at 37° C. The cells were then washed and resuspended in DMEM-HEPES at a concentration of 2×10^5 cells/ml. The autofluorescence of the HSE culture was determined.
# Subsequently, the HSE cells were incubated with different strains and extracts of C. albicans (5×10^5 cells/well), MNF (2 μg carbohydrate/ml), EC (2 μg carbohydrate/ml), PF (2 μg protein/ml) or commercial mannan from Saccharomyces cerevisiae (100 μg/ml) for 8 hours. The non-treated HSE cells received basal medium as control. […]
# Once the time of adhesion ended, the co-cultures were excited with light of wavelength 488 nm and the fluorescence emitted at 530 nm by the BCEF incorporated to the tumor cells in the scanning fluorometer in plate was recorded. […] Subsequently, 1 ml of the same adhesion medium was added in each well and the fluorescence emitted was read. Thus a relative value (in arbitrary units of fluorescence intensity) could be determined with respect to the number of tumor cells added. […]
substance,measurement,setting,value
IL-Ra: IL-1β receptor antagonist molecule (Amgen Biologicals),effect on the release of TNF-α by the endothelium stimulated by the mannoproteins of C. albicans (in words),[1],partially reduces
same,effect on the increase of the tumor adhesion to the HSE induced by the MNF (in words),[2],completely inhibits
